Assay results reported in publication PMC12040169 (PLOS Biology, 2025).

Assay: in vitro
Settings: human, hela cells, % viability

## O=C(c1ccc2nccnc2c1)N1CCCc2ccccc21 [CBK200257]
  viability at 28.5 h, 10 µM: 95.3%

## O=C(COc1cccnc1)N1CCCc2ccccc21 [CBK200258]
  viability at 28.5 h, 10 µM: 92.5%

## O=C(c1cncnc1)N1CCCc2ccccc21 [CBK200259]
  viability at 28.5 h, 10 µM: 91.4%

## CN1CCC(C(=O)N2CCCc3ccccc32)CC1 [CBK200260]
  viability at 28.5 h, 10 µM: 95%

## Cc1cc2ncn(CC(=O)NC3Cc4ccccc4C3)c2cc1C [CBK200261]
  viability at 28.5 h, 10 µM: 97.3%

## CN1CCC(C(=O)NC2Cc3ccccc3C2)CC1 [CBK200263]
  viability at 28.5 h, 10 µM: 118%

## O=C(c1cnc2ccccc2n1)N1CCc2ccccc21 [CBK200267]
  viability at 28.5 h, 10 µM: 117%

## O=C(COc1cccnc1)N1CCc2ccccc21 [CBK200268]
  viability at 28.5 h, 10 µM: 107%

## O=C(c1ccc2[nH]ccc2c1)N1CCc2ccccc21 [CBK200269]
  viability at 28.5 h, 10 µM: 101%

## Cc1cc2ncn(CC(=O)N3CCc4ccccc43)c2cc1C [CBK200270]
  viability at 28.5 h, 10 µM: 114%

## O=C(CN1CCOCC1)N1CCc2ccccc21 [CBK200271]
  viability at 28.5 h, 10 µM: 96.3%

## O=C(c1cnc2ccccc2c1)N1CCC(F)CC1 [CBK200273]
  viability at 28.5 h, 10 µM: 102%

## O=C(c1ccc2ccccc2n1)N1CCC(F)CC1 [CBK200276]
  viability at 28.5 h, 10 µM: 102%

## O=C(c1nc2ccccc2[nH]1)N1CCC(F)CC1 [CBK200278]
  viability at 28.5 h, 10 µM: 90.3%

## O=C(c1ccncc1)N1CCc2ccccc21 [CBK200280]
  viability at 28.5 h, 10 µM: 93.7%

## COc1ccc(C(=O)N2CCc3ccccc32)c(OC)n1 [CBK200281]
  viability at 28.5 h, 10 µM: 106%

## O=C(c1n[nH]c2ccccc12)N1CCc2ccccc21 [CBK200282]
  viability at 28.5 h, 10 µM: 90.6%

## O=C(c1cnc2ccccc2c1)N1CCc2ccccc21 [CBK200284]
  viability at 28.5 h, 10 µM: 77.7%

## C[C@@H]1CN(C(=O)OCc2ncc(F)cc2F)C[C@H](C)O1 [CBK200286]
  viability at 28.5 h, 10 µM: 103%

## Cc1ccc(CNC(=O)OCCN2CCN(C)CC2)n1C [CBK200287]
  viability at 28.5 h, 10 µM: 86.8%

## Cc1ccc(NC(=O)c2cnccn2)c(C)n1 [CBK200291]
  viability at 28.5 h, 10 µM: 97.2%

## COc1ncccc1C(=O)Nc1ccc(C)nc1C [CBK200292]
  viability at 28.5 h, 10 µM: 90.6%

## Cc1ccc(NC(=O)c2ccc3ccccc3n2)c(C)n1 [CBK200293]
  viability at 28.5 h, 10 µM: 83.2%

## Cc1ccc(NC(=O)c2nccc3ccccc23)c(C)n1 [CBK200294]
  viability at 28.5 h, 10 µM: 93.2%

## Cc1ccc(NC(=O)c2cscn2)c(C)n1 [CBK200297]
  viability at 28.5 h, 10 µM: 102%

## Cc1ccc(NC(=O)Cc2cn(C)c3ccccc23)c(C)n1 [CBK200298]
  viability at 28.5 h, 10 µM: 61.9%

## Cc1noc(C)c1NC(=O)c1ccnc2ccccc12 [CBK200302]
  viability at 28.5 h, 10 µM: 96.3%

## Cc1noc(C)c1NC(=O)c1cc2ccccc2[nH]1 [CBK200303]
  viability at 28.5 h, 10 µM: 95.6%

## Cc1noc(C)c1NC(=O)c1ccc2ccccc2n1 [CBK200309]
  viability at 28.5 h, 10 µM: 101%

## Cc1noc(C)c1NC(=O)c1nc2ccccc2[nH]1 [CBK200315]
  viability at 28.5 h, 10 µM: 81.5%

## O=C(c1ccncc1)N1Cc2ccccc2C1 [CBK200316]
  viability at 28.5 h, 10 µM: 103%

## Cc1ccc(C(=O)N2Cc3ccccc3C2)cn1 [CBK200318]
  viability at 28.5 h, 10 µM: 94.9%

## O=C(c1ccc[nH]1)N1Cc2ccccc2C1 [CBK200319]
  viability at 28.5 h, 10 µM: 89.4%

## O=C(Cc1cccnc1)N1Cc2ccccc2C1 [CBK200320]
  viability at 28.5 h, 10 µM: 90.5%

## O=C(Cc1c[nH]c2ccccc12)N1Cc2ccccc2C1 [CBK200321]
  viability at 28.5 h, 10 µM: 103%

## O=C(c1ccc2nc[nH]c2c1)N1Cc2ccccc2C1 [CBK200322]
  viability at 28.5 h, 10 µM: 103%

## O=C(c1cnccc1C(F)(F)F)N1Cc2ccccc2C1 [CBK200323]
  viability at 28.5 h, 10 µM: 105%

## COc1ncccc1C(=O)N1Cc2ccccc2C1 [CBK200324]
  viability at 28.5 h, 10 µM: 101%

## O=C(c1csnn1)N1Cc2ccccc2C1 [CBK200325]
  viability at 28.5 h, 10 µM: 111%

## Cc1nc(C)c(C(=O)N2Cc3ccccc3C2)s1 [CBK200326]
  viability at 28.5 h, 10 µM: 95.9%

## O=C(c1ccno1)N1Cc2ccccc2C1 [CBK200327]
  viability at 28.5 h, 10 µM: 97%

## Cc1cc(C(=O)N2Cc3ccccc3C2)n[nH]1 [CBK200328]
  viability at 28.5 h, 10 µM: 100%

## Cn1cncc1C(=O)N1Cc2ccccc2C1 [CBK200329]
  viability at 28.5 h, 10 µM: 106%

## O=C(c1ccc2[nH]nnc2c1)N1CCc2ccccc2C1 [CBK200332]
  viability at 28.5 h, 10 µM: 103%

## Cc1noc(C)c1C(=O)N1CCc2ccccc2C1 [CBK200333]
  viability at 28.5 h, 10 µM: 103%

## O=C(Cc1ccccn1)N1CCc2ccccc2C1 [CBK200334]
  viability at 28.5 h, 10 µM: 104%

## O=C(Cn1cnnn1)N1CCc2ccccc2C1 [CBK200335]
  viability at 28.5 h, 10 µM: 101%

## COc1ncccc1C(=O)N1CCc2ccccc2C1 [CBK200336]
  viability at 28.5 h, 10 µM: 96.9%

## Cn1c(C(=O)N2CCc3ccccc3C2)cc2ccccc21 [CBK200337]
  viability at 28.5 h, 10 µM: 96.7%

## CCOc1ccsc1C(=O)N1CCc2ccccc2C1 [CBK200339]
  viability at 28.5 h, 10 µM: 95.1%

## Cc1cc(C(=O)N2CCCc3ccccc32)n[nH]1 [CBK200346]
  viability at 28.5 h, 10 µM: 92%

## O=C(c1cscn1)N1CCCc2ccccc21 [CBK200348]
  viability at 28.5 h, 10 µM: 102%

## Cn1cc(CC(=O)N2CCCc3ccccc32)c2ccccc21 [CBK200349]
  viability at 28.5 h, 10 µM: 64.8%

## O=C(Cc1ccncc1)NC1Cc2ccccc2C1 [CBK200351]
  viability at 28.5 h, 10 µM: 94.1%

## O=C(NC1Cc2ccccc2C1)c1nccc2ccccc12 [CBK200356]
  viability at 28.5 h, 10 µM: 97%

## O=C(NC1Cc2ccccc2C1)c1ccno1 [CBK200358]
  viability at 28.5 h, 10 µM: 99.4%

## CN(C)c1ccc(CC(=O)NC2Cc3ccccc3C2)cc1 [CBK200360]
  viability at 28.5 h, 10 µM: 105%

## Cn1cncc1C(=O)NC1Cc2ccccc2C1 [CBK200362]
  viability at 28.5 h, 10 µM: 107%

## O=C(c1ccc2[nH]nnc2c1)N1CCc2ccccc21 [CBK200365]
  viability at 28.5 h, 10 µM: 102%

## O=C(Cc1c[nH]c2ccccc12)N1CCc2ccccc21 [CBK200366]
  viability at 28.5 h, 10 µM: 107%

## O=C(Cn1cnnn1)N1CCc2ccccc21 [CBK200367]
  viability at 28.5 h, 10 µM: 97.4%

## C[C@@H]1CN(C(=O)c2ccc3[nH]nnc3c2)C[C@H](C)O1 [CBK200369]
  viability at 28.5 h, 10 µM: 104%

## CCN1CCN(C(=O)c2c(C)noc2C)CC1 [CBK200374]
  viability at 28.5 h, 10 µM: 93.6%

## CCN1CCN(C(=O)Cc2cccnc2)CC1 [CBK200375]
  viability at 28.5 h, 10 µM: 92.3%

## Cc1ccc(NC(=O)COc2cccnc2)c(C)n1 [CBK200379]
  viability at 28.5 h, 10 µM: 102%

## Cc1noc(C)c1NC(=O)c1cncnc1 [CBK200382]
  viability at 28.5 h, 10 µM: 112%

## O=C(CN1CCOCC1)N1CCC(F)CC1 [CBK200383]
  viability at 28.5 h, 10 µM: 83.5%

## O=C(c1cncnc1)N1CCC(F)CC1 [CBK200384]
  viability at 28.5 h, 10 µM: 92.1%

## Cc1ccc(NC(=O)c2cc(C)[nH]n2)c(C)n1 [CBK200387]
  viability at 28.5 h, 10 µM: 83.8%

## Cc1noc(C)c1NC(=O)c1cnccn1 [CBK200390]
  viability at 28.5 h, 10 µM: 89.9%

## Cc1noc(C)c1NC(=O)Cc1cccnc1 [CBK200391]
  viability at 28.5 h, 10 µM: 96.6%

## Cc1ccncc1C(=O)Nc1c(C)noc1C [CBK200393]
  viability at 28.5 h, 10 µM: 80.7%

## Cc1noc(C)c1NC(=O)c1ccno1 [CBK200394]
  viability at 28.5 h, 10 µM: 87%

## Cc1noc(C)c1NC(=O)c1cncn1C [CBK200396]
  viability at 28.5 h, 10 µM: 115%

## Cc1ccncc1C(=O)N1CCc2ccccc21 [CBK200400]
  viability at 28.5 h, 10 µM: 109%

## COc1ncccc1C(=O)N1CCc2ccccc21 [CBK200402]
  viability at 28.5 h, 10 µM: 91.5%

## O=C(c1nccc2ccccc12)N1CCc2ccccc21 [CBK200405]
  viability at 28.5 h, 10 µM: 93.5%

## Cn1c(C(=O)N2CCc3ccccc32)cc2ccccc21 [CBK200406]
  viability at 28.5 h, 10 µM: 110%

## O=C(c1nc2ccccc2[nH]1)N1CCc2ccccc21 [CBK200411]
  viability at 28.5 h, 10 µM: 87.8%

## Cn1cncc1C(=O)N1CCc2ccccc21 [CBK200412]
  viability at 28.5 h, 10 µM: 86.7%

## O=C(OCCc1c[nH]c2ccccc12)N1CCOCC1 [CBK200415]
  viability at 28.5 h, 10 µM: 106%

## C[C@@H]1CN(C(=O)OCCc2ccsc2)C[C@H](C)O1 [CBK200417]
  viability at 28.5 h, 10 µM: 89.3%

## CCSc1ccccc1-c1nc2c(=O)n(C)c(-c3ccc(CN4CCCC4)cc3)cc2o1 [CBK200426T]
  viability at 28.5 h, 10 µM: 77.9%

## Cn1c(-c2ccc(CN3CCCC3)cc2)cc2oc(-c3ccccc3SCCO)nc2c1=O [CBK200427T]
  viability at 28.5 h, 10 µM: 94.7%

## O=c1[nH]c(=O)n([C@H]2C[C@H](O)[C@@H](CO)O2)cc1I [CBK200650]
  viability at 28.5 h, 10 µM: 96.5%

## COc1ccc(Cn2c(C)nc3ccccc32)cc1 [CBK201156]
  viability at 28.5 h, 10 µM: 116%

## O=c1[nH]cc([C@H]2C[C@@H](O)[C@@H](CO)O2)c(=O)[nH]1 [CBK201158]
  viability at 28.5 h, 10 µM: 95.4%

## O=c1ccn([C@@H]2O[C@H](CO)[C@H](O)C2O)c(=O)[nH]1 (stereo partly shown) [CBK201159]
  viability at 28.5 h, 10 µM: 95.1%

## Nc1nc(=O)n([C@@H]2O[C@H](CO)[C@H](O)C2O)cc1CO (stereo partly shown) [CBK201160]
  viability at 28.5 h, 10 µM: 92.7%

## Nc1nc(=O)n([C@H]2C[C@@H](O)[C@@H](CO)O2)cc1Br [CBK201161]
  viability at 28.5 h, 10 µM: 97.1%

## Nc1ncnc2c1nc(OCc1ccccc1)n2C1CC(O)C(CO)O1 (stereo not shown) [CBK201164]
  viability at 28.5 h, 10 µM: 94.9%

## Cc1ccc(S(=O)(=O)OC[C@H]2O[C@@H](n3cc(C)c(=O)[nH]c3=O)C[C@H]2O)cc1 [CBK201165]
  viability at 28.5 h, 10 µM: 88.1%

## Nc1n[nH]c(=O)c2c1ncn2[C@H]1C[C@@H](O)[C@@H](CO)O1 [CBK201169]
  viability at 28.5 h, 10 µM: 93.7%

## Cn1cc([C@H]2C[C@@H](O)[C@@H](CO)O2)c(=O)[nH]c1=O [CBK201171]
  viability at 28.5 h, 10 µM: 88.9%

## O=c1[nH]cc([C@@H]2O[C@H](CO)[C@H](O)C2O)c(=O)[nH]1 (stereo partly shown) [CBK201172]
  viability at 28.5 h, 10 µM: 103%

## O=C(O)/C=C/c1cn([C@H]2C[C@@H](O)[C@@H](CO)O2)c(=O)[nH]c1=O [CBK201174]
  viability at 28.5 h, 10 µM: 92.9%

## [N-]=[N+]=Nc1nc2c(N)ncnc2n1C1CC(O)C(CO)O1 (stereo not shown) [CBK201178]
  viability at 28.5 h, 10 µM: 95.2%

## O=c1[nH]c(=O)n([C@@H]2O[C@H](CO)[C@H](O)C2O)cc1Br (stereo partly shown) [CBK201180]
  viability at 28.5 h, 10 µM: 87.2%

## OCC1OC(n2cnc3c(Oc4ccccc4)ncnc32)CC1O (stereo not shown) [CBK201181]
  viability at 28.5 h, 10 µM: 91.5%

## Nc1ncnc2c1nc1n2[C@H]2C[C@@H](O)[C@H](O2)[C@H]1O [CBK201183]
  viability at 28.5 h, 10 µM: 96.2%
